Here are results for 13 compounds from patent US20220249431A1, “ANTIMYCOTIC” (Karl-Franzens-Universität Graz, priority 2019, published 2022).

Values after ≈ are worked out from the molar mass of the structure shown. Read-outs that look alike come from different tables or passages of the source. A value given as a limit tells only on which side of the number the result lay.

One assay deals with C. glabrata biofilm. Kind of assay: Biofilm inhibition concentration (XTT). Type of assay: cell-based, Candida glabrata. Particulars: Nakaseomyces glabratus, read-out: BIC50. How it is done: (§1) In short, RPMI medium was inoculated with an overnight culture to an OD (optical density) of 0.1, transferred to a U-bottom 96-well plate (MLS, Belgium) and treated with serial dilutions of substances. After the adherence phase (1 h, 37° C.), supernatant was removed, adherent cells were washed with PBS and fresh media (including substances) was added. Biofilms were then allowed to grow for 24 h at 37° C. Formed biofilms were then analyzed for their metabolic activity. Therefore, C. albicans biofilm cells were treated with CTB (cell titer Blue®; Promega, Germany), diluted 1:100 in PBS. […] Sigma, Germany or ABCR, Germany) was used instead. Thereby, biofilm cells were treated with an XTT solution (0.25 mg/mL XTT+0.1 μM menadione in PBS) at 37° C. in the dark and OD490 was measured.

The subject of a further assay is C. glabrata. Kind of assay: Minimal inhibitory concentration, planktonic cells (CLSI M27). Type of assay: cell-based, Candida glabrata. Conditions: Nakaseomyces glabratus, growth reduced to 50% of untreated control. On the procedure: (§2) The minimal inhibitory concentration (MIC) was determined following the standard Clinical and Laboratory Standards Institute (CLSI) protocol M27 (Rex JH, and Clinical and Laboratory Standards Institute (2008). Reference method for broth dilution antifungal susceptibility testing of yeasts: approved standard, 3rd ed. National Committee for Clinical Laboratory Standards, Wayne, Pa.) for yeast strains or the standard CLSI protocol […] (Clinical and Laboratory Standards Institute (2008). Reference method for broth dilution antifungal susceptibility testing of filamentous fungi. Clinical and Laboratory Standards Institute, Wayne, Pa.) for filamentous fungi. For yeast strains media was inoculated with an overnight culture to an OD600 of 0.001 (1^04 cells/mL). Serial dilutions of substances were added and cells were incubated at 37° C. without shaking for 48±1 h. MIC tests were performed in flat-bottom 96 well plates (Greiner Bio One, Austria) using 100 μL suspension per well sealed with gas-permeable foils. After incubation, OD490 values were measured using 96-well plate reader and growth capacity was analyzed by setting the corresponding control to 100%. Different flavones were randomly chosen and tested for their effects on planktonic cells and biofilms of C. albicans and C. glabrata to determine corresponding IC50 values (the concentration that is required to reduce growth (minimal inhibitory concentration=MIC) or biofilm formation (biofilm inhibitory concentration=BIC) to 50% compared to the untreated control).

Assay [1] relates to C. albicans. The description is as above. Type of assay: cell-based. Particulars: Candida albicans, growth reduced to 50% of untreated control. How it is done:
as §2

The next assay relates to C. albicans biofilm. Kind of assay: Biofilm inhibition concentration (CTB staining). Type of assay: cell-based. Particulars: Candida albicans; C. albicans biofilm formation reduced to 50% of untreated control; read-out: BIC50. How it is done:
as §1, with “The biofilm inhibition concentration (BIC) was determined as described in […] et al. (J Antimicrob Chemother 69(2014): 1035-1044). In” for “In”, “PBS. After incubation for 1 h at 37° C. in the dark fluorescence intensity was measured using a 96-well plate reader (Ex: 535, Em: 590, sens 65).” for “PBS.”, “measured. As for MIC, biofilm inhibition was analyzed by setting the corresponding control to 100%. Different flavones were randomly chosen and tested for their effects on planktonic cells and biofilms of C. albicans and C. glabrata to determine corresponding IC50 values (the concentration that is required to reduce growth (minimal inhibitory concentration=MIC) or biofilm formation (biofilm inhibitory concentration=BIC) to 50% compared to the untreated control).” for “measured.”

Assay [2] relates to C. albicans. Kind of assay: Checkerboard / combination assay, growth of planktonic cells (OD490). Particulars: for antimycotic effect in combination with other known antimycotics: FIGS. 6 and 7; for effect on antifungal activity of azole antifungals (growth, OD490): flavone 6.25-25 μM with 0.1 μM miconazole or 1 μM fluconazole. Type of assay: cell-based, Candida albicans. On the procedure:
The minimal inhibitory concentration (MIC) was determined following the standard Clinical and Laboratory Standards Institute (CLSI) protocol M27 (Rex JH, and Clinical and Laboratory Standards Institute (2008). Reference method for broth dilution antifungal susceptibility testing of yeasts: approved standard, 3rd ed. National Committee for Clinical Laboratory Standards, Wayne, Pa.) for yeast strains or the standard CLSI protocol M38 (Clinical and Laboratory Standards Institute (2008). Reference method for broth dilution antifungal susceptibility testing of filamentous fungi. Clinical and Laboratory Standards Institute, Wayne, Pa.) for filamentous fungi.
For yeast strains media was inoculated with an overnight culture to an OD600 of 0.001 (1^04 cells/mL). Serial dilutions of substances were added and cells were incubated at 37° C. without shaking for 48±1 h.
MIC tests were performed in flat-bottom 96 well plates (Greiner Bio One, Austria) using 100 μL suspension per well sealed with gas-permeable foils. After incubation, OD490 values were measured using 96-well plate reader and growth capacity was analyzed by setting the corresponding control to 100%.
For synergy testing of different combinations, checkerboard assays were performed. Therefore, serial dilutions of two different compounds were combined for MIC, BIC or BEC testing as described above. Antifungal activity of substances alone or in combination was determined by setting the corresponding control to 100%.

[3] abbreviates: C. glabrata biofilm formation reduced to 50% of untreated control.

As a reminder, the MIC50 is an inhibitory concentration at the 50% level, which refers to growth in some studies and to a panel of isolates in others. A lower MIC50 goes with greater potency.

With `O=c1cc(-c2cccc(O)c2)oc2ccccc12` [3′-hydroxyflavone], the IC50 in the assay with C. glabrata biofilm (setting [3]) worked out at 26.7 ± 3 µM.
`O=c1c(O)c(-c2ccccc2)oc2ccccc12` [3-hydroxyflavone] had an MIC50 with C. glabrata of 6.2 ± 0.2 µM (≈ 1.48 µg/mL).
`O=c1c(O)c(-c2ccccc2O)oc2ccccc12` [2′,3-dihydroxyflavone] registered an MIC50 against C. glabrata of 53.9 ± 2.1 µM (≈ 13.7 µg/mL). Moreover, the IC50 in the assay on C. glabrata biofilm (setting [3]) came to 124 ± 34.7 µM.
For the compound `O=c1c(O)c(-c2ccccc2)oc2cc(O)ccc12` [3,7-dihydroxyflavone], in the assay with C. glabrata biofilm, the IC50 came to 62.5 ± 26 µM.
In the case of `O=c1c(O)c(-c2cccc(O)c2)oc2ccccc12` [3,3′-dihydroxyflavone], the MIC50 amounted to 254 ± 68.5 µM (≈ 64.7 µg/mL) against C. albicans [1] and 5.9 ± 0.1 µM (≈ 1.5 µg/mL) with C. glabrata. In addition, the IC50 with C. glabrata biofilm (setting [3]) turned out to be 21.5 ± 3.6 µM.
Regarding `O=c1cc(-c2ccc(O)cc2)oc2cccc(O)c12` [4′,5-dihydroxyflavone, reference compound], the MIC50 with C. albicans [1] and against C. glabrata was more than 400 µM each time. The IC50 with C. albicans biofilm and with C. glabrata biofilm (setting [3]) was more than 400 µM each time.
Turning to `O=c1cc(-c2ccc(O)c(O)c2)oc2cc(O)ccc12` [3′,4′,7-trihydroxyflavone], in the assay on C. albicans [2], the “antimycotic effect in combination with other known antimycotics” value (“antimycotic effect in combination” for short) was “synergistic antimycotic effect” and the “effect on antifungal activity of azole antifungals (growth, OD490)” value is on record as “enhance the antifungal activity of azole antifungals”.
On to `O=c1cc(-c2ccccc2)oc2ccc(O)cc12` [6-hydroxyflavone], for which the IC50 in the assay on C. glabrata biofilm (setting [3]) was found to be 129 ± 14.2 µM.
As to `O=c1cc(-c2ccccc2)oc2cc(O)cc(O)c12` [5,7-dihydroxyflavone, reference compound], the MIC50 with C. albicans [1] and in the assay on C. glabrata was more than 400 µM in each case. For the same compound, the IC50 in the assay with C. albicans biofilm and with C. glabrata biofilm (setting [3]) was more than 400 µM throughout.
Take `O=c1cc(-c2ccc(O)c(O)c2)oc2ccccc12` [3′,4′-dihydroxyflavone]: in the assay on C. albicans biofilm, the IC50 came to 147 ± 17.3 µM. The “effect on antifungal activity of antimycotics (growth, OD490)” value in the assay on C. albicans [2] (12.5-25 μM 3′,4′-DHF with miconazole, fluconazole, ketoconazole or clotrimazole) is given as “enhances the antifungal activity of antimycotics”. In the assay with C. albicans [2], the “antimycotic effect in combination” value is reported as “synergistic antimycotic effect”.
As for `O=c1cc(-c2ccccc2)oc2cc(O)ccc12` [7-hydroxyflavone], in the assay with C. glabrata biofilm, the IC50 is 17.4 ± 7 µM.
Consider `O=c1cc(-c2ccc(O)c(O)c2)oc2cc(O)cc(O)c12` [luteolin, 3′,4′,5,7-tetrahydroxyflavone], for which, in the assay on C. albicans [2], the “antimycotic effect in combination” value was “synergistic antimycotic effect” and the “effect on antifungal activity of azole antifungals (growth, OD490)” value is “enhance the antifungal activity of azole antifungals”.
`O=c1cc(-c2ccccc2)oc2cc(O)c(O)cc12` [6,7-dihydroxyflavone] gave an MIC50 with C. glabrata of 15.7 ± 4.1 µM (≈ 3.99 µg/mL). The IC50 in the assay with C. glabrata biofilm (setting [3]) worked out at 41.7 ± 9.1 µM.
